Patent US9265784B2, “Antineoplastic combinations of 4-anilino-3-cyanoquinolines and capecitabine” (WYETH LLC, priority 2008, dated 2016)
Where two headings read alike, the source gives them in different places.

Columns and labels:
Type in all cases: in vivo, human
[1] = Preliminary pharmacokinetic analyses of neratinib after oral administration; conditions: for AUC / Cmax: oral daily; for AUC: read-out: Mean steady-state AUC; for Cmax: read-out: Mean steady-state Cmax
Description: The mean accumulation ratio was 1.2 after a 240-mg dose, indicating no significant accumulation of neratinib after repeated daily dose administration at the dose to be used in this proposed trial.
The data indicated a slow distribution of neratinib with a large apparent volume of distribution (Vz/F on day 1: about 3188 to 6181 L) after oral absorption. […] There was moderate to large variability in neratinib t1/2, Cmax, and AUC; coefficients of variation (CVs) generally ranged from 8% to 90%.

[2] = system: erbB-2-overexpressing advanced or metastatic breast cancer; assay: Ongoing phase 2 study of neratinib 240 mg daily oral, efficacy
Description: (§1) In an ongoing phase 2 study, neratinib is being administered as daily oral doses of 240 mg in subjects with erbB-2-overexpressing advanced or metastatic breast cancer, who received up to 4 prior cytotoxic chemotherapy treatment regimens, with prior trastuzumab therapy for metastatic or locally advanced disease (≧6 weeks) or with no prior exposure to erbB-2-targeted treatment. Preliminary results were obtained for 124 subjects evaluable for efficacy based on independent assessment and 131 subjects evaluable per investigator assessment. […] Median Progression Free Survival (PFS) for independent (and investigator) assessment was 23 (22), with a 16-week PFS rate of 61% (57%) in subjects who had received prior trastuzumab. For trastuzumab naïve subjects, PFS per independent (and investigator) assessment was 40 (35), with a 16-week PFS rate of 75% (78%).

[3] = Ongoing phase 2 study of neratinib 240 mg daily oral, adverse events
Description: as §1
The predominant AE was diarrhea, which was reversible and generally manageable by medication, temporary discontinuation of treatment, or dose reduction. Diarrhea that was considered related to neratinib occurred with a frequency of 94% of the subjects. Of those, grade 3-4 diarrhea was experienced by 25% of the subjects. Other common AEs were nausea (related to neratinib in 30%, grade 3-4 in 2% of the subjects), vomiting (related in 23%, grade 3-4 in 2%), fatigue (related in 20%, grade 3-4 in <2%), and anorexia (related in 16%, grade 3-4 in 4%). […] Presented at the Poster presented at the SABCS, San Antonio, USA].

[4] = human, in vivo, 400 mg (highest dose)
[5] = human, in vivo, 180-mg dose group
[6] = human, in vivo, 240-mg dose group
[7] = human, in vivo, 320-mg dose group
[8] = prior trastuzumab, independent assessment
[9] = prior trastuzumab, investigator assessment
[10] = trastuzumab naïve subjects, independent assessment
[11] = trastuzumab naïve subjects, investigator assessment

## CCOc1cc2ncc(C#N)c(Nc3ccc(OCc4ccccn4)c(Cl)c3)c2cc1NC(=O)/C=C/CN(C)C [neratinib, (2E)-N-[4-[[3-chloro-4-[(pyridin-2-yl)methoxy]phenyl]amino]-3-cyano-7-ethoxyquinolin-6-yl]-4-(dimethylamino)but-2-enamide]
[1]; after a 240-mg dose, repeated daily administration
  mean accumulation ratio: 1.2
[1]; after oral administration
  dose dependence of Cmax and AUC: increased in a dose-dependent manner
[1]; [4]
  AUC: 1700 ng·h/mL
  Cmax: 105 ng/mL
[1]; [5]
  AUC: 975 ng·h/mL
  Cmax: 70.1 ng/mL
[1]; [6]
  AUC: 939 ng·h/mL
  Cmax: 73.5 ng/mL
[1]; [7]
  AUC: 1330 ng·h/mL
  Cmax: 90.4 ng/mL
[1]; human, in vivo, day 1, after oral absorption, read-out: apparent volume of distribution (Vz/F)
  Vd/F: 3190 to 6180 L
[1]; human, in vivo, oral administration, day 1, read-out: mean apparent terminal half-life (t1/2)
  half-life: 780 to 1020 min
[1]; oral
  absorption: relatively slow
[2]; [8]
  16-week PFS rate: 61%
  Median Progression Free Survival (PFS): 23
[2]; [9]
  16-week PFS rate: 57%
  Median Progression Free Survival (PFS): 22
[2]; subjects with erbB-2-positive advanced breast cancer, 240 mg daily oral
  antitumor activity: significant antitumor activity
[2]; subjects with prior trastuzumab containing therapy in the metastatic setting, independently assessed, 240 mg daily oral
  ORR: 26%
[2]; subjects with prior trastuzumab containing therapy in the metastatic setting, investigator assessed, 240 mg daily oral
  ORR: 35%
[2]; [10]
  16-week PFS rate: 75%
  PFS: 40
[2]; trastuzumab naïve subjects, independently assessed, 240 mg daily oral
  ORR: 51%
[2]; trastuzumab naïve subjects, investigator assessed, 240 mg daily oral
  ORR: 62%
[2]; [11]
  16-week PFS rate: 78%
  PFS: 35
[3]; 240 mg daily oral
  Diarrhea considered related to neratinib, frequency of subjects: 94%
  anorexia grade 3-4, subjects: 4%
  anorexia related, subjects: 16%
  fatigue grade 3-4, subjects: < 2%
  fatigue related, subjects: 20%
  grade 3-4 diarrhea, subjects: 25%
  nausea grade 3-4, subjects: 2%
  nausea related to neratinib, subjects: 30%
  vomiting grade 3-4, subjects: 2%
  vomiting related, subjects: 23%
[3]; daily oral doses of 240 mg
  tolerability: generally well tolerated
